Patent US20230278972A1, “SUBSTITUTED HALOALKYL SULFONANILIDE HERBICIDES” (FMC Corporation, priority 2020, published 2023)

Tests used:
Assay type in all cases: in vivo
[1] = system: ragweed (common ragweed, Ambrosia artemisiifolia); experiment: Test A1 postemergence, ragweed; conditions: Postemergence
Method in brief: (§1)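 Herbicidal response was scored on plants treated either preemergence, by directed spray onto soil of a loam–sand blend after sowing, or postemergence on potted plants at the one- to two-leaf stage, 2–10 cm high. Test chemicals were carried in a non-phytotoxic solvent mix with surfactant.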

[2] = system: goosegrass (Eleusine indica); experiment: Test A1 preemergence, goosegrass
Method in brief: (§2)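 Pre: seeds in loam/sand blend, directed soil spray. Post: potted plants, same soil, 2–10 cm, 1–2 leaf stage. Chemicals in non-phytotoxic solvent + surfactant for both.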

[3] = system: ragweed (common ragweed, Ambrosia artemisiifolia); experiment: Test A1 preemergence, ragweed
Method in brief: as §2

[4] = system: Foxtail, Giant (giant foxtail, Setaria faberi); experiment: Test A1 postemergence, Foxtail, Giant; conditions: Postemergence
Method in brief: (§3)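 Both timings started from seed in a loam-sand blend. Preemergence pots got a directed soil application immediately; postemergence pots were sprayed when seedlings had one or two leaves and stood 2–10 cm. Each compound was prepared in a non-phytotoxic solvent plus surfactant.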

[5] = system: goosegrass (Eleusine indica); experiment: Test A1 postemergence, goosegrass; conditions: Postemergence
Method in brief: as §3

[6] = system: Pigweed, Palmer (palmer amaranth, palmer pigweed, Amaranthus palmeri); experiment: Test A1 postemergence, Pigweed, Palmer; conditions: Postemergence
Method in brief: as §1

corn (Zea mays) [7] = experiment: Test A1 preemergence, corn
Method in brief: as §1

[8] = system: barnyardgrass (Echinochloa crus-galli); experiment: Test B1 flooded paddy test, barnyardgrass; conditions: 250 g ai/ha, Flood, applied to paddy water, 2-leaf stage, visually evaluated after 10 to 14 days
Source text: (§4) A dash (-) response means no test result.

rice (Oryza sativa) = experiment: Test B1 flooded paddy test, rice; conditions: 250 g ai/ha, Flood, applied to paddy water, 2-leaf stage, visually evaluated after 10 to 14 days
Source text: as §4

[9] = system: horseweed (Erigeron canadensis); experiment: Test A1 postemergence, horseweed; conditions: Postemergence
Method in brief: as §3

soybean (Glycine max) [10] = experiment: Test A1 postemergence, soybean; conditions: Postemergence
Method in brief: as §3

[11] = system: ducksalad (Heteranthera limosa); experiment: Test B1 flooded paddy test, ducksalad; conditions: 250 g ai/ha, Flood, applied to paddy water, 2-leaf stage, visually evaluated after 10 to 14 days
Source text: as §4

kochia (Bassia scoparia) [12] = experiment: Test A1 postemergence, kochia; conditions: Postemergence
Method in brief: as §3

kochia (Bassia scoparia) [13] = experiment: Test A1 preemergence, kochia
Method in brief: as §2

[14] = system: blackgrass (Alopecurus myosuroides); experiment: Test A1 preemergence, blackgrass
Method in brief: as §2

[15] = system: Ryegrass, Italian (Italian ryegrass, Lolium multiflorum); experiment: Test A1 preemergence, Ryegrass, Italian
Method in brief: as §2

[16] = system: wheat (Triticum aestivum); experiment: Test A1 preemergence, wheat
Method in brief: as §2

[17] = system: Pigweed, Palmer (palmer amaranth, palmer pigweed, Amaranthus palmeri); experiment: Test A1 preemergence, Pigweed, Palmer
Method in brief: as §2

[18] = system: blackgrass (Alopecurus myosuroides); experiment: Test A1 postemergence, blackgrass; conditions: Postemergence, 0 to 100 scale (0 no effect, 100 complete control)
Method in brief: as §3

[19] = system: Oat, Wild (wild oat, Avena fatua); experiment: Test A1 postemergence, Oat, Wild; conditions: Postemergence
Method in brief: as §1

corn (Zea mays) [20] = experiment: Test A1 postemergence, corn; conditions: Postemergence
Method in brief: as §2

[21] = system: Oat, Wild (wild oat, Avena fatua); experiment: Test A1 preemergence, Oat, Wild
Method in brief: as §2

[22] = system: wheat (Triticum aestivum); experiment: Test A1 postemergence, wheat; conditions: Postemergence
Method in brief: as §3

soybean (Glycine max) [23] = experiment: Test A1 preemergence, soybean
Method in brief: as §2

[24] = system: Ryegrass, Italian (Italian ryegrass, Lolium multiflorum); experiment: Test A1 postemergence, Ryegrass, Italian; conditions: Postemergence
Method in brief: as §3

[25] = system: galium (catchweed bedstraw, Galium aparine); experiment: Test A1 postemergence, galium; conditions: Postemergence
Method in brief: as §3

[26] = system: Foxtail, Giant (giant foxtail, Setaria faberi); experiment: Test A1 preemergence, Foxtail, Giant
Method in brief: as §2

[27] = 31 g ai/ha, 0 to 100 scale (0 no effect, 100 complete control), 10 days
[28] = 31 g ai/ha, 0 to 100 scale (0 no effect, 100 complete control)
[29] = 125 g ai/ha, 0 to 100 scale, 0 no effect, 100 complete control

## CCOC(=O)N(c1cc(C(=O)N2C[C@@H](C)O[C@@H](C)C2)c(C)c(C)c1C)S(=O)(=O)C(F)(F)F [Compound 332]
[1]; [27]
  Plant response rating, Ragweed: 80
[1]; 125 g ai/ha, 0 to 100 scale
  Plant response rating, Ragweed: 80
[2]; [28]
  Plant response rating, Goosegrass: 50
[2]; [29]
  Plant response rating, Goosegrass: 90
[3]; [28]
  Plant response rating, Ragweed: 50
[3]; [29]
  Plant response rating, Ragweed: 80
[4]; [27]
  Plant response rating, Foxtail, Giant: 30
[4]; 125 g ai/ha, 0 to 100 scale
  Plant response rating, Foxtail, Giant: 90
[5]; [27]
  Plant response rating, Goosegrass: 0
[5]; 125 g ai/ha, 0 to 100 scale
  Plant response rating, Goosegrass: 90
[6]; [27]
  Plant response rating, Pigweed, Palmer: 10
[6]; 125 g ai/ha, 0 to 100 scale
  Plant response rating, Pigweed, Palmer: 30
Corn (Zea mays) [7]; [28]
  Plant response rating, Corn: 0
Corn (Zea mays) [7]; [29]
  Plant response rating, Corn: 10
[8]
  Plant response rating, Barnyardgrass (0 to 100 scale, 0 is no effect, 100 is complete control): 98
Rice (Oryza sativa)
  Plant response rating, Rice (0 to 100 scale, 0 is no effect, 100 is complete control): 0
[9]; [27]
  Plant response rating, Horseweed: 60
[9]; 125 g ai/ha, 0 to 100 scale
  Plant response rating, Horseweed: 80
Soybean (Glycine max) [10]; [27]
  Plant response rating, Soybean: 60
Soybean (Glycine max) [10]; 125 g ai/ha, 0 to 100 scale
  Plant response rating, Soybean: 100
[11]
  Plant response rating, Ducksalad (0 to 100 scale, 0 is no effect, 100 is complete control): 80
Kochia (Bassia scoparia) [12]; [27]
  Plant response rating, Kochia: 0
Kochia (Bassia scoparia) [12]; 125 g ai/ha, 0 to 100 scale
  Plant response rating, Kochia: 10
Kochia (Bassia scoparia) [13]; [28]
  Plant response rating, Kochia: 20
Kochia (Bassia scoparia) [13]; [29]
  Plant response rating, Kochia: 60
[14]; [28]
  Plant response rating, Blackgrass: 0
[14]; [29]
  Plant response rating, Blackgrass: 0
[15]; [28]
  Plant response rating, Ryegrass, Italian: 0
[15]; [29]
  Plant response rating, Ryegrass, Italian: 20
[16]; [28]
  Plant response rating, Wheat: 10
[16]; [29]
  Plant response rating, Wheat: 40
[17]; [28]
  Plant response rating, Pigweed, Palmer: 60
[17]; [29]
  Plant response rating, Pigweed, Palmer: 90
[18]; 31 g ai/ha, 10 days
  Plant response rating, Blackgrass: 0
[18]; 125 g ai/ha
  Plant response rating, Blackgrass: 90
[19]; [27]
  Plant response rating, Oat, Wild: 0
[19]; 125 g ai/ha, 0 to 100 scale
  Plant response rating, Oat, Wild: 30
Corn (Zea mays) [20]; [27]
  Plant response rating, Corn: 0
Corn (Zea mays) [20]; 125 g ai/ha, 0 to 100 scale
  Plant response rating, Corn: 50
[21]; [28]
  Plant response rating, Oat, Wild: 0
[21]; [29]
  Plant response rating, Oat, Wild: 20
[22]; [27]
  Plant response rating, Wheat: 10
[22]; 125 g ai/ha, 0 to 100 scale
  Plant response rating, Wheat: 50
Soybean (Glycine max) [23]; [28]
  Plant response rating, Soybean: 20
Soybean (Glycine max) [23]; [29]
  Plant response rating, Soybean: 70
[24]; [27]
  Plant response rating, Ryegrass, Italian: 0
[24]; 125 g ai/ha, 0 to 100 scale
  Plant response rating, Ryegrass, Italian: 50
[25]; [27]
  Plant response rating, Galium: 80
[25]; 125 g ai/ha, 0 to 100 scale
  Plant response rating, Galium: 90
[26]; [28]
  Plant response rating, Foxtail, Giant: 100
[26]; [29]
  Plant response rating, Foxtail, Giant: 100

## Cc1cc(C)c(N(COC(=O)C(C)(C)C)S(=O)(=O)C(F)(F)F)cc1C1=NOC2COCC12 (stereo not drawn) [Compound 301]
[1]; [27]
  Plant response rating, Ragweed: 60
[1]; 125 g ai/ha, 0 to 100 scale
  Plant response rating, Ragweed: 70
[2]; [28]
  Plant response rating, Goosegrass: 80
[2]; [29]
  Plant response rating, Goosegrass: 100
[3]; [28]
  Plant response rating, Ragweed: 0
[3]; [29]
  Plant response rating, Ragweed: 80
[4]; [27]
  Plant response rating, Foxtail, Giant: 0
[4]; 125 g ai/ha, 0 to 100 scale
  Plant response rating, Foxtail, Giant: 60
[5]; [27]
  Plant response rating, Goosegrass: 0
[5]; 125 g ai/ha, 0 to 100 scale
  Plant response rating, Goosegrass: 60
[6]; [27]
  Plant response rating, Pigweed, Palmer: 0
[6]; 125 g ai/ha, 0 to 100 scale
  Plant response rating, Pigweed, Palmer: 30
Corn (Zea mays) [7]; [28]
  Plant response rating, Corn: 0
Corn (Zea mays) [7]; [29]
  Plant response rating, Corn: 10
[8]
  Plant response rating, Barnyardgrass (0 to 100 scale, 0 is no effect, 100 is complete control): 95
Rice (Oryza sativa)
  Plant response rating, Rice (0 to 100 scale, 0 is no effect, 100 is complete control): 0
[9]; [27]
  Plant response rating, Horseweed: 50
[9]; 125 g ai/ha, 0 to 100 scale
  Plant response rating, Horseweed: 80
Soybean (Glycine max) [10]; [27]
  Plant response rating, Soybean: 10
Soybean (Glycine max) [10]; 125 g ai/ha, 0 to 100 scale
  Plant response rating, Soybean: 40
[11]
  Plant response rating, Ducksalad (0 to 100 scale, 0 is no effect, 100 is complete control): 50
Kochia (Bassia scoparia) [12]; [27]
  Plant response rating, Kochia: 0
Kochia (Bassia scoparia) [12]; 125 g ai/ha, 0 to 100 scale
  Plant response rating, Kochia: 30
Kochia (Bassia scoparia) [13]; [28]
  Plant response rating, Kochia: 30
Kochia (Bassia scoparia) [13]; [29]
  Plant response rating, Kochia: 80
[14]; [28]
  Plant response rating, Blackgrass: 30
[14]; [29]
  Plant response rating, Blackgrass: 40
[15]; [28]
  Plant response rating, Ryegrass, Italian: 20
[15]; [29]
  Plant response rating, Ryegrass, Italian: 90
[16]; [28]
  Plant response rating, Wheat: 0
[16]; [29]
  Plant response rating, Wheat: 40
[17]; [28]
  Plant response rating, Pigweed, Palmer: 10
[17]; [29]
  Plant response rating, Pigweed, Palmer: 40
[18]; 31 g ai/ha, 10 days
  Plant response rating, Blackgrass: 0
[18]; 125 g ai/ha
  Plant response rating, Blackgrass: 0
[19]; [27]
  Plant response rating, Oat, Wild: 0
[19]; 125 g ai/ha, 0 to 100 scale
  Plant response rating, Oat, Wild: 10
Corn (Zea mays) [20]; [27]
  Plant response rating, Corn: 0
Corn (Zea mays) [20]; 125 g ai/ha, 0 to 100 scale
  Plant response rating, Corn: 30
[21]; [28]
  Plant response rating, Oat, Wild: 0
[21]; [29]
  Plant response rating, Oat, Wild: 0
[22]; [27]
  Plant response rating, Wheat: 0
[22]; 125 g ai/ha, 0 to 100 scale
  Plant response rating, Wheat: 60
Soybean (Glycine max) [23]; [28]
  Plant response rating, Soybean: 0
Soybean (Glycine max) [23]; [29]
  Plant response rating, Soybean: 20
[24]; [27]
  Plant response rating, Ryegrass, Italian: 0
[24]; 125 g ai/ha, 0 to 100 scale
  Plant response rating, Ryegrass, Italian: 60
[25]; [27]
  Plant response rating, Galium: 70
[25]; 125 g ai/ha, 0 to 100 scale
  Plant response rating, Galium: 90
[26]; [28]
  Plant response rating, Foxtail, Giant: 10
[26]; [29]
  Plant response rating, Foxtail, Giant: 90
